Assay results from patent US11051515B2, “3-acyl-benzamides and their use as herbicides” (Bayer Aktiengesellschaft, priority 2017, dated 2021).

How the values were obtained:
POLCO = assay: Post-emergence action against POLCO; assay type: in vivo, Polygonum convolvulus; conditions: post-emergence, dosage 80 g/ha
Experimental: Seeds of monocotyledonous and dicotyledonous weed and crop plants are laid out in sandy loam soil in wood-fiber pots, covered with soil and cultivated in a greenhouse under good growth conditions. 2 to 3 weeks after sowing, the test plants are treated at the one-leaf stage. The compounds of the invention, formulated in the form of wettable powders (WP) or as emulsion concentrates (EC), are then sprayed onto the green parts of the plants in the form of an aqueous suspension or emulsion at a water application rate equating to […], with addition of 0.2% wetting agent. After the test plants have been left to stand in the greenhouse under optimal growth conditions for about 3 weeks, the action of the preparations is assessed visually in comparison to untreated controls (herbicidal action in percent (%): 100% activity=the plants have died, 0% activity=like control plants). […] At the same time, inventive compounds leave Gramineae crops such as barley, wheat, rye, millet/Sorghum, corn or rice virtually undamaged when applied post-emergence, even at high active ingredient dosages. In addition, some substances are also harmless to dicotyledonous crops such as soya, cotton, oilseed rape, sugar beet or potatoes. Some of the compounds according to the invention have high selectivity and are therefore suitable for controlling unwanted vegetation in agricultural crops by the post-emergence method. The data of Tables B18 to B34 below illustrate, in an exemplary manner, the […] herbicidal action of the compounds according to the invention, the herbicidal activity being stated in percent.

STEME [1] = assay: Post-emergence action against STEME; assay type: in vivo, Stellaria media; conditions: post-emergence, dosage 80 g/ha
Outline: (§1)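 Post-emergence foliar spray on greenhouse plants at the one-leaf stage, using wettable-powder or emulsion-concentrate formulations in water (600 to […], plus 0.2% wetting agent). Damage scored by eye roughly 3 weeks later against untreated plants: 0% = like control, 100% = dead.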

MATIN [2] = assay: Pre-emergence action against MATIN; assay type: in vivo, Matricaria inodora; conditions: Dosage 320 g/ha, pre-emergence
Outline: (§2)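 Seeds sown in sandy loam in wood-fiber pots and covered with soil. Greenhouse growth; visual damage scored after 3 weeks versus untreated controls (100% = dead, 0% = like control).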

VIOTR [3] = assay: Post-emergence action against VIOTR; assay type: in vivo, Viola tricolor; conditions: post-emergence, dosage 80 g/ha
Outline: as §1

PHBPU [4] = assay: Post-emergence action against PHBPU; assay type: in vivo, Pharbitis purpurea; conditions: post-emergence, dosage 80 g/ha
Outline: as §1

ECHCG [5] = assay: Pre-emergence action against ECHCG; assay type: in vivo, Echinochloa crus-galli; conditions: pre-emergence, dosage 320 g/ha, scored visually after 3 weeks vs untreated controls
Outline: as §2

ABUTH [6] = assay: Pre-emergence action against ABUTH; assay type: in vivo, Abutilon theophrasti; conditions: pre-emergence, dosage 320 g/ha, scored visually after 3 weeks vs untreated controls
Outline: as §2

PHBPU [7] = assay: Pre-emergence action against PHBPU; assay type: in vivo, Pharbitis purpurea; conditions: Dosage 320 g/ha, pre-emergence
Outline: as §2

MATIN [8] = assay: Post-emergence action against MATIN; assay type: in vivo, Matricaria inodora; conditions: post-emergence, dosage 80 g/ha, visual assessment about 3 weeks after treatment vs untreated controls
Outline: as §1

SETVI [9] = assay: Pre-emergence action against SETVI; assay type: in vivo, Setaria viridis; conditions: pre-emergence, dosage 320 g/ha, scored visually after 3 weeks vs untreated controls
Outline: as §2

SETVI [10] = assay: Post-emergence action against SETVI; assay type: in vivo, Setaria viridis; conditions: post-emergence, dosage 80 g/ha, visual assessment about 3 weeks after treatment vs untreated controls
Outline: as §1

VERPE [11] = assay: Pre-emergence action against VERPE; assay type: in vivo, Veronica persica; conditions: Dosage 320 g/ha, pre-emergence
Outline: as §2

ABUTH [12] = assay: Post-emergence action against ABUTH; assay type: in vivo, Abutilon theophrasti; conditions: post-emergence, dosage 80 g/ha, visual assessment about 3 weeks after treatment vs untreated controls
Outline: as §1

AMARE [13] = assay: Pre-emergence action against AMARE; assay type: in vivo, Amaranthus retroflexus; conditions: pre-emergence, dosage 320 g/ha, scored visually after 3 weeks vs untreated controls
Outline: as §2

ALOMY = assay: Pre-emergence action against ALOMY; assay type: in vivo, Alopecurus myosuroides; conditions: dosage 320 g/ha; pre-emergence; scored visually after 3 weeks vs untreated controls; 100% = plants have died, 0% = like control plants
Outline: as §2

VERPE [14] = assay: Post-emergence action against VERPE; assay type: in vivo, Veronica persica; conditions: dosage 80 g/ha
Outline: as §1

AMARE [15] = assay: Post-emergence action against AMARE; assay type: in vivo, Amaranthus retroflexus; conditions: post-emergence, dosage 80 g/ha, visual assessment about 3 weeks after treatment vs untreated controls
Outline: as §1

AVEFA = assay: Pre-emergence action against AVEFA; assay type: in vivo, Avena fatua; conditions: dosage 320 g/ha, scored visually after 3 weeks vs untreated controls
Outline: as §2

ECHCG [16] = assay: Post-emergence action against ECHCG; assay type: in vivo, Echinochloa crus-galli; conditions: post-emergence, dosage 80 g/ha, visual assessment about 3 weeks after treatment vs untreated controls
Outline: as §1

CYPES = assay: Pre-emergence action against CYPES; assay type: in vivo, Cyperus esculentus; conditions: pre-emergence, dosage 320 g/ha, scored visually after 3 weeks vs untreated controls
Outline: as §2

VIOTR [17] = assay: Pre-emergence action against VIOTR; assay type: in vivo, Viola tricolor; conditions: Dosage 320 g/ha, pre-emergence
Outline: as §2

STEME [18] = assay: Pre-emergence action against STEME; assay type: in vivo, Stellaria media; conditions: Dosage 320 g/ha, pre-emergence
Outline: as §2

| Structure (SMILES) | Post-emergence action against POLCO (POLCO) | Post-emergence action against STEME (STEME [1]) | Pre-emergence action against MATIN (MATIN [2]) [%] | Post-emergence action against VIOTR (VIOTR [3]) | Post-emergence action against PHBPU (PHBPU [4]) | Pre-emergence action against ECHCG (herbicidal activity) (ECHCG [5]) [%] | Post-emergence action against MATIN (herbicidal action in percent) (MATIN [8]) [%] | Post-emergence action against SETVI (herbicidal action in percent) (SETVI [10]) [%] | Pre-emergence action against VERPE (VERPE [11]) [%] | Pre-emergence action against AMARE (herbicidal activity) (AMARE [13]) [%] | Post-emergence action against VERPE (VERPE [14]) | Post-emergence action against AMARE (herbicidal action in percent) (AMARE [15]) [%] | Post-emergence action against ECHCG (herbicidal action in percent) (ECHCG [16]) [%] | Pre-emergence action against STEME (STEME [18]) [%] | other results |
| --- | --- | --- | --- | --- | --- | --- | --- | --- | --- | --- | --- | --- | --- | --- | --- |
| CCCn1nnnc1NC(=O)c1ccc(C(F)(F)F)c(C(C)=O)c1Cl [3-137] | 90 | 100 | 100 | 100 | 100 | 100 | 100 | 100 | 90 | 100 | 90 | 100 | 90 | 100 | Pre-emergence action against ABUTH (herbicidal activity) (ABUTH [6]): 100%; Pre-emergence action against PHBPU (PHBPU [7]): 100%; SETVI (Table B8, pre-emergence herbicidal activity) (SETVI [9]): 90%; Post-emergence action against ABUTH (herbicidal action in percent) (ABUTH [12]): 90%; Pre-emergence action against ALOMY (herbicidal activity in percent) (ALOMY): 90%; Pre-emergence action against AVEFA (herbicidal activity) (AVEFA): 80%; Pre-emergence action against CYPES (herbicidal activity) (CYPES): 90%; Pre-emergence action against VIOTR (VIOTR [17]): 100% |
| CCn1nnnc1NC(=O)c1ccc(C)c(C(C)=O)c1Cl [2-134] | 80 | 100 | 90 | 100 | 80 | 80 | 90 | 80 | 100 | 100 | 90 | 90 | 90 | 90 | – |
